Assay results: US7094799B2, “Polymorphs of bicifadine hydrochloride” (DOV Pharmaceutical, Inc., priority 2002, dated 2006)
Where a name gives a salt, the structure may show the parent alone.

Columns and labels:
Format in all cases: physicochemical
[1] = Solubility in organic solvents; details: room temperature; become soluble when heated
Procedure: However, they become soluble when heated. In accordance with this conversion, the polymorph form A crystals of bicifadine hydrochloride are mixed with an organic solvent, having a boiling point of at least 50° C. to form a slurry. In carrying out this conversion any conventional organic solvent having a boiling point of at least 50° C. can be utilized. The slurry is then heated to a temperature at which said slurry is a clear solution, and this solution is cooled to a temperature of at most about 35° C., preferably between about 0° C. to about 20° C. The cooled solution is maintained at a temperature of at most about 35° C. for a period of time sufficient to allow said polymorph B to form as a pure crystalline form free from the presence of the polymorph form A. If desired, cooling can be carried out with stirring. During cooling the mixture should be monitored to allow sufficient time for crystalline polymorph B to form from the mixture.

[2] = Stability of the polymorphic form on grinding (Retsch Mixer Mill, XRPD analysis); details: Retsch Mixer Mill MM 200, stainless steel ball, 30/s, 5-minute intervals, total of 20 minutes; hydrochloride
Procedure: The X-ray powder diffraction (XRPD) analyses of polymorphic forms A and B of racemic bicifadine hydrochloride were performed with a Shimadzu XRD-6000 X-ray powder diffractometer using Cu Kα radiation. The bicifadine was loaded onto the machine as a crystalline powder. The instrument was equipped with a fine focus X-ray tube. The tube voltage and amperage were set to 40 kV and 40 mA, respectively. The divergence and scattering slits were set at 1° and the receiving slit was set at 0.15 mm. Diffracted radiation was detected by a NaI scintillation detector. A theta-two theta continuous scan at 3°/min (0.4 sec/0.02° step) from 2.5 to 40°2θ was used. A silicon standard was analyzed to check the instrument alignment. Data were collected and analyzed using XRD-6000 v. 4.1.
Form A bicifadine hydrochloride (207 mg) was charged to a small stainless steel cylinder. A stainless steel ball was added, the cylinder capped, and the unit shaken on a Retsch Mixer Mill (Type MM 200) at 5-minute intervals at a frequency of 30/s for a total of 20 minutes. The milled material was then removed and analyzed by XRPD.
Form B bicifadine hydrochloride (111 mg) was charged to a small stainless steel cylinder. […] The milled material was then removed and analyzed by XRPD.

[3] = Thermodynamic stability of polymorphic forms; details: form B compared with form A; hydrochloride

## Cc1ccc(C23CNCC2C3)cc1 (racemic) [Form A bicifadine hydrochloride, (±)-1-(4-methylphenyl)-3-azabicyclo[3.1.0]-hexane hydrochloride]
[1]
  solubility in organic solvents: poorly soluble
[2]
  polymorphic form after grinding (XRPD): partial conversion to form B
[3]
  thermodynamic stability of crystal form: not the most thermodynamically stable polymorphic form

## Cc1ccc(C23CNCC2C3)cc1 (racemic) [Form B bicifadine hydrochloride, (±)-1-(4-methylphenyl)-3-azabicyclo[3.1.0]-hexane hydrochloride]
[2]
  polymorphic form after grinding (XRPD): remained form B
[3]
  thermodynamic stability of crystal form: more thermodynamically stable
